Assay results as given in patent publication EP0450660B1, “Anti-atherosclerotic diaryl compound” (THE WELLCOME FOUNDATION LIMITED, priority 1988, dated 1990).

Key:
isolated rat liver cells = assay: In vitro cytotoxicity: effects on metabolic competence of isolated rat liver cells; type: cell-based
Method: The cytotoxicity of the compound of the invention was investigated in vitro by studying its effects on the metabolic competence of isolated rat liver cells. […] A 15% decrease in ATP levels was observed after 90 minutes at a concentration of 100µM.

ACAT = target: T1, ACAT (Homo sapiens, UniProt P35610); assay: In vitro inhibition of ACAT (radiometric, [14C]oleoyl CoA substrate, microsomal protein); type: biochemical; details: enzyme derived from human embryo 407 intestinal epithelial cell line, 37°C, pH 7.0, 4 minutes, read-out: IC₅₀ for ACAT inhibition
T1 construct: Microsomal protein is therefore used as the source of both ACAT and cholesterol; endogenous in cells; host or cells: human embryo 407 intestinal epithelial cell line (microsomal fraction)
T1 sequence (P35610 1-550): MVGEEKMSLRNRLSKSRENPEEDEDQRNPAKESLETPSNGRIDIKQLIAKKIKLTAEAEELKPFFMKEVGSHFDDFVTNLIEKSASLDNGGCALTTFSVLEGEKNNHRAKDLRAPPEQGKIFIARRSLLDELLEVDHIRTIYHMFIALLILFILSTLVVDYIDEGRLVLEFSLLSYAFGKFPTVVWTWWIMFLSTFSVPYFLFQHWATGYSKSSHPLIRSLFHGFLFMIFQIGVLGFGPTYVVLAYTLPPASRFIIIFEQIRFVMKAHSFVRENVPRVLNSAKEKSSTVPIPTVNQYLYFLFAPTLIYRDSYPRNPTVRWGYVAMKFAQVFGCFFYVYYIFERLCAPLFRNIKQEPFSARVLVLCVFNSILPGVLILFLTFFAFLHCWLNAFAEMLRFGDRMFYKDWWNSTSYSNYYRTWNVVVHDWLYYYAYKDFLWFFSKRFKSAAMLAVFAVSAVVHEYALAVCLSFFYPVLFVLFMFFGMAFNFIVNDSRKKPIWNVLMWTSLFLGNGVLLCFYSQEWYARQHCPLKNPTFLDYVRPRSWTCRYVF
Method: In vitro inhibition of ACAT
The in vitro esterification of cholesterol in the presence of ACAT and the test compound was assayed radiometrically using [¹⁴C]oleoyl CoA as substrate: [¹⁴C]oleoyl CoA + cholesterol → [¹⁴C]oleoyl cholesterol + CoASH [formula]
The enzyme is membrane-associated in vivo. Microsomal protein is therefore used as the source of both ACAT and cholesterol. The compound of the invention was tested against enzyme derived from human embryo 407 intestinal epithelial cell line.
[¹⁴C]Oleoyl CoA was incubated with microsomal protein at 37°C, pH 7.0, in the presence of various concentrations of the test compound. After 4 minutes, the reaction was stopped by the addition of ice-cold chloroform/methanol containing a known amount of [³H]oleoyl cholesterol to compensate for the loss of any [¹⁴C] product. A known volume of the resulting lower phase, which contains lipidic material from the reaction, was dried, redissolved in hexane containing unlabelled oleoyl cholesterol (TLC marker) and run on a quantitative TLC plate (silica gel). The oleoyl cholesterol spot was visualised (iodine vapour), removed from the TLC plate and its radioactivity measured by scintillation counting.
A plot of ACAT inhibitory activity vs concentration was prepared for the test compound and the corresponding IC₅₀ determined.

## CCCCCCCNC(=O)Nc1c(F)cc(F)cc1CCc1ccc(CC(C)(C)C)cc1 [compound of the invention, 1-[2,4-difluoro-6-{2-[4-(2,2-dimethylpropyl)phenyl]ethyl}phenyl]-3-heptylurea]
Isolated rat liver cells; after 90 minutes at a concentration of 100µM
  decrease in ATP levels: 15%
Isolated rat liver cells; concentrations of up to 100µM
  effect on gluconeogenesis: No effect
ACAT
  IC50: 22 nM
